# Experiments:
# Assay in all cases: KINOMEscan competition binding
# Settings in all cases: compound 0.1 µM
# [1] = molecular target: ROS1 (human) (UniProt P08922)
# [2] = test system: FLT3 (human), P36888 [K663Q]
# [3] = molecular target: CDK4 CCND1 (human) (UniProt P11802+P24385)
# [4] = test system: FGFR3 (human), P22607 [G697C]
# [5] = molecular target: BMX (human) (UniProt P51813)
# [6] = molecular target: AKT3 (human) (UniProt Q9Y243)
# [7] = test system: EGFR (human), P00533 [T790M/L858R]
# [8] = molecular target: PI4KB (human) (UniProt Q9UBF8)
# [9] = molecular target: CaMK1 (human) (UniProt Q14012)
# [10] = molecular target: CSNK2A1 (human) (UniProt P68400)
# [11] = molecular target: MAP3K4 (human) (UniProt Q9Y6R4)
# [12] = molecular target: MAP2K1 (human) (UniProt Q02750)
# [13] = molecular target: STK17B (human) (UniProt O94768)
# [14] = test system: RET (human), P07949 [M918T]
# [15] = test system: ABL1 (human), P00519 [Y253F]
# [16] = molecular target: MAP3K3 (human) (UniProt Q99759)
# [17] = molecular target: ULK1 (human) (UniProt O75385)
# [18] = molecular target: CDC42BPG (human) (UniProt Q6DT37)
# [19] = molecular target: STK36 (human) (UniProt Q9NRP7)
# [20] = molecular target: VRK2 (human) (UniProt Q86Y07)
# [21] = molecular target: YSK4 (human) (UniProt Q56UN5)
# Chain of YSK4 (human) (Q56UN5 whole entry, looked up): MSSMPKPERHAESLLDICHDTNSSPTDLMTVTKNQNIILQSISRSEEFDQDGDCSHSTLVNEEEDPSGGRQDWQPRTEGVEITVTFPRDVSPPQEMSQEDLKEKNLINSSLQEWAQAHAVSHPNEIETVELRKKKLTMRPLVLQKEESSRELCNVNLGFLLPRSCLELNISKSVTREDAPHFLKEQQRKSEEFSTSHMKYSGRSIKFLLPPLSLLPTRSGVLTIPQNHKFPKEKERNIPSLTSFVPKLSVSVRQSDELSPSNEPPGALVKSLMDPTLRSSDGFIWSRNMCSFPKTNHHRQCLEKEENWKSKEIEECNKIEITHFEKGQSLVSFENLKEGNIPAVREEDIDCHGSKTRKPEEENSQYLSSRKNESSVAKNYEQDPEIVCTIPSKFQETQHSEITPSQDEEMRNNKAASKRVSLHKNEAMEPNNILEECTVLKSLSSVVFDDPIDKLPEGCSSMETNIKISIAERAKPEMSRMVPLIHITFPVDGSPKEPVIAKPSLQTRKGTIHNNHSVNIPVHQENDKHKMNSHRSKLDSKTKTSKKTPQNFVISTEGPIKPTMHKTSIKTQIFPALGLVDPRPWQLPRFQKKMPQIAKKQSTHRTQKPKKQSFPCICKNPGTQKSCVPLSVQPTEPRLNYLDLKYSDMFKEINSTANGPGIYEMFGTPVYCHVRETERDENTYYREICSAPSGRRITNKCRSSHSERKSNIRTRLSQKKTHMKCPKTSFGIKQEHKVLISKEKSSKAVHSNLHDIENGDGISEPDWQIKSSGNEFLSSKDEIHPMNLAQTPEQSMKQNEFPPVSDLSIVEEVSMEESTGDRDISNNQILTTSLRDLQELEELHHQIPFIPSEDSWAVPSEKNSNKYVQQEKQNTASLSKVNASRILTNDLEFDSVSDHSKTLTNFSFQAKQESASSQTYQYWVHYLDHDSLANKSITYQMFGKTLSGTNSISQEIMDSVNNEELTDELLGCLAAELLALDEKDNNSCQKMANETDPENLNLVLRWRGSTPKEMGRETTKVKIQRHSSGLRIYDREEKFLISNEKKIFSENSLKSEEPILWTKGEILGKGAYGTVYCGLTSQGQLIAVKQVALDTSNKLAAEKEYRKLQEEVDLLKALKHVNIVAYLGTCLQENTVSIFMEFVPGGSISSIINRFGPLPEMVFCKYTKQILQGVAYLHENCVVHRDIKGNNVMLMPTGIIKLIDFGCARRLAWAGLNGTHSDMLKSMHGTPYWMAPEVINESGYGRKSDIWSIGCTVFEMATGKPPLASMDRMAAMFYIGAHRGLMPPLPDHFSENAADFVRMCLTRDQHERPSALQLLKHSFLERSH
# [22] = molecular target: NEK5 (human) (UniProt Q6P3R8)
# [23] = molecular target: PLK4 (human) (UniProt O00444)
# [24] = molecular target: EPHA4 (human) (UniProt P54764)
# [25] = molecular target: CDK14 (human) (UniProt O94921)
# [26] = molecular target: NUAK2 (human) (UniProt Q9H093)
# [27] = molecular target: RPS6KA6 KD1 (human) (UniProt Q9UK32)
# [28] = molecular target: RPS6KA2 KD1 (human) (UniProt Q15349)
# [29] = molecular target: MYLK (human) (UniProt Q15746)
# [30] = molecular target: MKNK2 (human) (UniProt Q9HBH9)
# [31] = molecular target: MAPK4 (human) (UniProt P31152)
# [32] = molecular target: CASK (human) (UniProt O14936)
# [33] = molecular target: GRK7 (human) (UniProt Q8WTQ7)
# Chain of GRK7 (human) (Q8WTQ7 whole entry, looked up): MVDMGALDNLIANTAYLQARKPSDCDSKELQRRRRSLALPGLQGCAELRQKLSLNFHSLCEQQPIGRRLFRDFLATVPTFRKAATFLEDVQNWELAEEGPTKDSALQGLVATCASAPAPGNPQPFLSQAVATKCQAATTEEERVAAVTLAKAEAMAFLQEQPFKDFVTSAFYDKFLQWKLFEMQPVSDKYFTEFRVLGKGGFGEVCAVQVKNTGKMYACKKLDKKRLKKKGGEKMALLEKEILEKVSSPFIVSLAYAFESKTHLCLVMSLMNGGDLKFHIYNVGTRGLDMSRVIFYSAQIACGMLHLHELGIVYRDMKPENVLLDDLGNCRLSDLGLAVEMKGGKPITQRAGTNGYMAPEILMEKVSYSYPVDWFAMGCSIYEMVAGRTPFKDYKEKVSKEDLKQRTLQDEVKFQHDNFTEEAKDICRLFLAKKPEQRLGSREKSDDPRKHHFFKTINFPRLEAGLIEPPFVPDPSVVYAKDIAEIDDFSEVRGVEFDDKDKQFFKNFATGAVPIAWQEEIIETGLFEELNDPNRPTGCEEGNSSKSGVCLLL
# [34] = molecular target: RPS6KA6 KD2 (human) (UniProt Q9UK32)
# [35] = molecular target: NEK9 (human) (UniProt Q8TD19)
# [36] = test system: ABL1 (human), P00519 [M351T]
# [37] = molecular target: GSG2 (human) (UniProt Q8TF76)
# [38] = molecular target: CDC42BPA (human) (UniProt Q5VT25)
# [39] = molecular target: MAPK6 (human) (UniProt Q16659)
# [40] = molecular target: MARK2 (human) (UniProt Q7KZI7)
# Chain of ROS1 (human) (P08922 whole entry, looked up): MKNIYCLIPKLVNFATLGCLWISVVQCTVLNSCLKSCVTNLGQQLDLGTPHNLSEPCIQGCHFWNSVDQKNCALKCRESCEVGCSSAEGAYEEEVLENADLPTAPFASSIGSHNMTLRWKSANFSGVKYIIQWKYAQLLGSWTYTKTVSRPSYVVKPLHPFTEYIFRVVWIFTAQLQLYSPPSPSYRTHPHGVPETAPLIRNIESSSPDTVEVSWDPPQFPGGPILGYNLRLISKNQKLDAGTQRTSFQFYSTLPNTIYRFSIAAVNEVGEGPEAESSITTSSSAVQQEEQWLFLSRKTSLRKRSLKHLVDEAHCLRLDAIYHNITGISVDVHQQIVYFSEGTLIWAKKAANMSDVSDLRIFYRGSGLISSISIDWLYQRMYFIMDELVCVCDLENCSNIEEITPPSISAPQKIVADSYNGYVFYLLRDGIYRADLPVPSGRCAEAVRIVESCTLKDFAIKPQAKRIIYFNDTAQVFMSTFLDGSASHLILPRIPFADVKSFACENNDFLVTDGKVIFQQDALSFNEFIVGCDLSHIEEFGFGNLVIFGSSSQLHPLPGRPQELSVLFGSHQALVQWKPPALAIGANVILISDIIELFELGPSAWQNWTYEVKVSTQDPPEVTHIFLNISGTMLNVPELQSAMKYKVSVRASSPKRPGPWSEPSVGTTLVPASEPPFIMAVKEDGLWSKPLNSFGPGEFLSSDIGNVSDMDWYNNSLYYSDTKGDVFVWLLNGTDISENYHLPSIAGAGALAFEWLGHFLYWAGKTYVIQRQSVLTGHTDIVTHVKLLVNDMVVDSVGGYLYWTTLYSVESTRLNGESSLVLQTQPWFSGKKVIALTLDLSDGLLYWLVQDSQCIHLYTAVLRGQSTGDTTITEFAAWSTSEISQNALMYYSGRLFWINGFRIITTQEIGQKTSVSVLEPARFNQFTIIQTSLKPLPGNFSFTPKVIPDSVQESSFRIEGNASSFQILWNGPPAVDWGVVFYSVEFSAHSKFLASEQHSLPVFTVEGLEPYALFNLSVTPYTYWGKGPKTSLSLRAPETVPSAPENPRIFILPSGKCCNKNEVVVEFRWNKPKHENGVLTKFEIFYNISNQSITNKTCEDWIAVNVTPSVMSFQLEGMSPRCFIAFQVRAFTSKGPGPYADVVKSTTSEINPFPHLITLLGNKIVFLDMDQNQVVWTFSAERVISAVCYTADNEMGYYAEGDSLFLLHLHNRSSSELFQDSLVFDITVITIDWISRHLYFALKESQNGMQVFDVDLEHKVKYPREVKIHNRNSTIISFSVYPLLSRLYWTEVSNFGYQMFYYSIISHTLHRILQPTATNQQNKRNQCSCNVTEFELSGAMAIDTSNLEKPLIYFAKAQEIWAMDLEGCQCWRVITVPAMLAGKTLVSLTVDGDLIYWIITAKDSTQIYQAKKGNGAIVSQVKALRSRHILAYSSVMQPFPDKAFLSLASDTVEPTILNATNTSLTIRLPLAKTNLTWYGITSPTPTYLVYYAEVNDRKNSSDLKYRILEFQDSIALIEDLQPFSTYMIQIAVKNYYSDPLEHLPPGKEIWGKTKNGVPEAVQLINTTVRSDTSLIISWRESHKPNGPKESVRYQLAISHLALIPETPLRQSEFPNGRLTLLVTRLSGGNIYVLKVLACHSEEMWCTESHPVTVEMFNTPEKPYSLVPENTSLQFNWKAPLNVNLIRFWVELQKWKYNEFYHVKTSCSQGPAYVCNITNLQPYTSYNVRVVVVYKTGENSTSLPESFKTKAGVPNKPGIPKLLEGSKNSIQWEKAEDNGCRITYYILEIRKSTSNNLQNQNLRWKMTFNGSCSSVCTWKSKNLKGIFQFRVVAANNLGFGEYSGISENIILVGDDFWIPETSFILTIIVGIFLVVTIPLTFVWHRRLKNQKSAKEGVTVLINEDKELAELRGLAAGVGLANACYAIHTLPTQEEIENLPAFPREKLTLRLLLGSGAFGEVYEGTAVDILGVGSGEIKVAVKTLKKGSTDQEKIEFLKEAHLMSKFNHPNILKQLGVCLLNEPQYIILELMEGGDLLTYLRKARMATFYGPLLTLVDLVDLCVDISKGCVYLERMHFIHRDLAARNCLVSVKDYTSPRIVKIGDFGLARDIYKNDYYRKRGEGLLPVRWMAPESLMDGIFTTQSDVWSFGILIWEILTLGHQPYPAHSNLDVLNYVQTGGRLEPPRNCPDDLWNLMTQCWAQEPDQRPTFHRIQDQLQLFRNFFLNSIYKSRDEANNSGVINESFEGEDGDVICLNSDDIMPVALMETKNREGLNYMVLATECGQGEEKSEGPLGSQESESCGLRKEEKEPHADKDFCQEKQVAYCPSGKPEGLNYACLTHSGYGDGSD
# Chain of FGFR3 (human), P22607 [G697C] (P22607 whole entry G697C, looked up): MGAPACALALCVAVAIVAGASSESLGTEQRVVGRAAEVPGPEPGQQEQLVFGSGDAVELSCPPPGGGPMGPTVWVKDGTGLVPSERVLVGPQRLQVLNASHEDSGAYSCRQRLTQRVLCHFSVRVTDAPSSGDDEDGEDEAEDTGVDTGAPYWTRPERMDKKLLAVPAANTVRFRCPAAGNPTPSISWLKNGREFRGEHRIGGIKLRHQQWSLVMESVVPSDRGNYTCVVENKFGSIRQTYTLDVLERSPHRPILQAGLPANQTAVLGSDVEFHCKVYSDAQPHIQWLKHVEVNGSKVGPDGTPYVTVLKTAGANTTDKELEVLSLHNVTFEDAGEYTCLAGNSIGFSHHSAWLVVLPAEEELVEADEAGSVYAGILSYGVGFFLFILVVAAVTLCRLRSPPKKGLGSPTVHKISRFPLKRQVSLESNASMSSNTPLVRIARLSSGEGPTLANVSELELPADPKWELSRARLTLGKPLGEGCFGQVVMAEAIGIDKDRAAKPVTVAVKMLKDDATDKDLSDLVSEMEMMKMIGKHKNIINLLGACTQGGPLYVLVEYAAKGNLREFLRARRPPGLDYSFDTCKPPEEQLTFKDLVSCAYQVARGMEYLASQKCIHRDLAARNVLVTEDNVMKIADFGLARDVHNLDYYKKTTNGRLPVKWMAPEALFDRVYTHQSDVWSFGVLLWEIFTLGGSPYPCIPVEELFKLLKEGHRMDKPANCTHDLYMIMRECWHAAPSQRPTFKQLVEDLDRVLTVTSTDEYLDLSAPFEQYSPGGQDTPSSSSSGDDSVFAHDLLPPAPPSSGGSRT
structure (smiles),measurement,setting,value
CCc1ccc(C(=O)Nc2cc(CN3CCN(C)CC3)cc(C(F)(F)F)c2)cc1C#Cc1cnc2ccnn2c1,"kinase still bound, per cent of control",[1],78%
same,"kinase still bound, per cent of control",[2],70%
same,"kinase still bound, per cent of control",[3],100%
same,"kinase still bound, per cent of control",[4],90%
same,"kinase still bound, per cent of control",[5],100%
same,"kinase still bound, per cent of control",[6],100%
same,"kinase still bound, per cent of control",[7],48%
same,"kinase still bound, per cent of control",[8],100%
same,"kinase still bound, per cent of control",[9],75%
same,"kinase still bound, per cent of control",[10],100%
same,"kinase still bound, per cent of control",[11],100%
same,"kinase still bound, per cent of control",[12],100%
same,"kinase still bound, per cent of control",[13],75%
same,"kinase still bound, per cent of control",[14],46%
same,"kinase still bound, per cent of control",[15],100%
same,"kinase still bound, per cent of control",[16],100%
same,"kinase still bound, per cent of control",[17],100%
same,"kinase still bound, per cent of control",[18],100%
same,"kinase still bound, per cent of control",[19],84%
same,"kinase still bound, per cent of control",[20],100%
same,"kinase still bound, per cent of control",[21],100%
same,"kinase still bound, per cent of control",[22],100%
same,"kinase still bound, per cent of control",[23],100%
same,"kinase still bound, per cent of control",[24],97%
same,"kinase still bound, per cent of control",[25],81%
same,"kinase still bound, per cent of control",[26],100%
same,"kinase still bound, per cent of control",[27],100%
same,"kinase still bound, per cent of control",[28],78%
same,"kinase still bound, per cent of control",[29],100%
same,"kinase still bound, per cent of control",[30],100%
same,"kinase still bound, per cent of control",[31],90%
same,"kinase still bound, per cent of control",[32],100%
same,"kinase still bound, per cent of control",[33],100%
same,"kinase still bound, per cent of control",[34],100%
same,"kinase still bound, per cent of control",[35],100%
same,"kinase still bound, per cent of control",[36],100%
same,"kinase still bound, per cent of control",[37],75%
same,"kinase still bound, per cent of control",[38],84%
same,"kinase still bound, per cent of control",[39],98%
same,"kinase still bound, per cent of control",[40],100%
